Data set [1] in a line: NMR residue-specific helical propensity (pHel, CheSPI from backbone chemical shifts). The data set is classed as physicochemical. Conditions: 278 K, pH 7.4, 100 μM; 9 contiguous residues for (P3-7)2, 16 for (P3-7)3. As for the experimental part: Peptide samples for NMR spectroscopy were diluted to a final concentration of 100 μM in a volume of 400 μL in either 20 mM phosphoric acid (pH 2.8) or sodium phosphate (pH 7.4) buffer with added 10% v/v D2O and 10 μM DSS for internal chemical shift referencing, then filled into Shigemi tubes (Shigemi Co. Ltd, Tokyo, Japan). All NMR experiments were recorded at 278 K (unless stated otherwise) on either a Bruker Avance III 600 MHz or a Bruker Avance NEO 800 MHz spectrometer, both equipped with TCI cryoprobes, using TopSpin 4.0.8 for data acquisition (Bruker, Billerica, MA). Unlabeled synthetic peptides P1-5, P2-6, P3-7, P5-9 were characterized by two-dimensional homonuclear (TOCSY and NOESY) and heteronuclear (^1H-^13C HSQC) experiments. The TOCSY and NOESY mixing times were set to 70 and 200 ms, respectively. Water suppression was achieved by excitation sculpting[59] using a 2 ms long Squa100.1000 selective pulse. For peptide backbone resonance assignment, using uniformly ^15N,^13C labeled peptides, the following series of 3D triple resonance BEST-TROSY[60] experiments were acquired with 25% non-uniform sampling (NUS): HNCO, HN(CA)CO, HN(CO)CA, HNCA, and HN(CO)CACB. For some peptides, we resolved assignment ambiguities by also acquiring a 3D (H)N(CA)NH spectrum. Furthermore, 2D ^13C-detected CACO and CON experiments[61] were measured. […]

A short description of data set [2]: CD spectroscopy (helicity). The data set is classed as physicochemical. To be noted: 30 μM peptide, ratio taken as sign of monomeric helix. On the procedure: Peptide samples for CD spectroscopy were diluted to a final concentration of 30 μM in a volume of 400 μL in either 20 mM phosphoric acid (pH 2.8) or sodium phosphate (pH 7.4) buffer. Spectra were obtained at 278 K (unless stated otherwise) in a Jasco 815 UV spectro-photopolarimeter with a 1 mm optical path cuvette using a data interval of 0.2 nm in the 190−260 nm range with a scanning speed of 50 nm min^−1 and 20 accumulations. A blank spectrum acquired on the pertaining buffer under the same experimental conditions was subtracted from the sample spectrum. Thermal denaturation experiments were performed by acquiring a single accumulation spectrum with the same parameters at 10 K intervals, with a temperature ramp speed of 10 K min^−1 and an equilibration time of 1 min.

The record followed here is PMC9674830, “A glutamine-based single α-helix scaffold to target globular proteins” (Nature Communications, 2022).

As to “KKPGASLAALQALQALQAAQAAKKY [(P3-7)2, Gln-based single α-helix scaffold peptide]”, in data set [1], the “Residue-specific helical propensity (pHel) over contiguous residues” value is given as over 0.9. In addition, the “Θ222 nm/Θ208 nm” value in data set [2] is under 1.
